From ChEMBL document CHEMBL1201862, “PubChem BioAssay data set” (2004) come the findings set out here.

Assay in all cases: NCI anticancer screen, dose series, 48 h
Assay [1] has as its system XF498.
Assay [2] deals with LXFL 529.
The subject of assay [3] is SNB-78.
For assay [4], the system named is DMS-114.
Assay [5] has as its system RXF 631.
In assay [6] the test system is DMS-273.
Assay [7] relates to KM-20L2.
Assay [8] deals with DLD-1.
In assay [9] the test system is HOP-18.

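Briefly, cells in 96-well plates were exposed to five compound concentrations for 48 h, and endpoints were estimated by linear interpolation. GI50 marks 50% less growth.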 The source made the active and inactive calls. Cut-off read from the data, not from the text of the source: active = GI50 up to about 1.1 µM and inactive = higher.

Take `O=c1c2ccccc2nc(-c2ccccc2)n1NC1OC(CO)C(O)C(O)C1O` (configuration not stated): the GI50 in [1], in assay [2], in assay [3], in assay [4], in [5] and in [6] was > 100 µM (inactive) in each case. The GI50 is > 100 µM (inactive) in [7], > 100 µM (inactive) in assay [8] and 1.46 µM (inactive) in assay [9].

Regarding `COc1ccc(OC)c(NC(=O)C(=O)NNC(=O)c2sc(NNC(C)=O)nc2C)c1`, the GI50 in assay [1] was 25.6 µM (inactive); in assay [2], 29.4 µM (inactive); in [3] it was 27 µM (inactive); in assay [7], 33.4 µM (inactive).

For the compound `O=c1c2ccccc2nc(-c2ccccc2)n1NC(=S)Nc1ccc(Cl)cc1[N+](=O)[O-]`, the GI50 was > 100 µM (inactive) in [2]; 31.2 µM (inactive) in assay [4]; 49.8 µM (inactive) in assay [6]; 87.9 µM (inactive) in assay [8]; 27.4 µM (inactive) in assay [9].

Consider `CSc1ccc(/C=C2/C[N+](C)(C)C/C(=C/c3ccc(SC)cc3)C2=O)cc1`, for which the GI50 in assay [1] is 15.7 µM (inactive); in assay [3], 62.2 µM (inactive); in assay [4], 6.44 µM (inactive); in [5], 35.2 µM (inactive); in [8], 7.78 µM (inactive); in assay [9], 31.8 µM (inactive).

`COc1cccc(N2C(=O)[C@H]3CC(C)c4c([nH]c5ccccc45)[C@H]3C2=O)c1` (some centres not stated): the GI50 in assay [1] was 55.7 µM (inactive); in assay [2], 42.8 µM (inactive); in assay [3] it was 33.3 µM (inactive); in assay [6] it was 79.4 µM (inactive); in assay [7], > 100 µM (inactive); in [8] it was 80.5 µM (inactive).

As for `Cc1ccccc1-n1c(C)nc2c1C(=O)c1ccccc1C2=O`, the GI50 in assay [3] was 58.2 µM (inactive); in [4], 31.1 µM (inactive); in assay [6] it was 42.5 µM (inactive).

Take `NC(=O)c1ccc([N+](=O)[O-])cc1`: the GI50 in assay [1], in [2], in assay [3], in assay [4], in assay [5] and in assay [6] was > 100 µM (inactive) throughout. The GI50 in [7] and in [8] was > 100 µM (inactive) each time.

On to `Cn1nc(-c2ccccc2)c(C(=O)/C=C/c2ccc(F)cc2)c(N2CCCC2)c1=O`, for which the GI50 in [1] is 20.8 µM (inactive); in [2], 12.8 µM (inactive); in assay [4], 11.5 µM (inactive); in assay [6] it was 14.8 µM (inactive); in assay [7], 13.1 µM (inactive); in assay [8] it was 11.2 µM (inactive). Besides, the GI50 in [9] was 14.6 µM (inactive).

As for `COC(=O)C1Cc2c([nH]c3ccccc23)C(c2ccccc2O)N1Cc1ccccc1` (configuration not stated), the GI50 is 31.5 µM (inactive) in [2]; 34 µM (inactive) in assay [3]; 19.8 µM (inactive) in assay [4]; 21.2 µM (inactive) in [5]; 23.8 µM (inactive) in assay [6]; > 46.5 µM (inactive) in [7]. Moreover, the GI50 in [8] is 74 µM (inactive); in assay [9], 31.6 µM (inactive).

Consider `CCOC(=O)c1cc2c(OCc3ccccc3)c(OC)cc3c2c(n1)N(c1ccc(OC)cc1)C(C)C3` (configuration not stated), for which the GI50 in assay [1] is > 50 µM (inactive); in [2], 39.4 µM (inactive); in assay [4], 38.3 µM (inactive); in [6], > 50 µM (inactive); in assay [7], 2.47 µM (inactive); in [8], > 50 µM (inactive). Moreover, the GI50 in assay [9] was > 50 µM (inactive).

As to `CC(=O)C1Cn2c(nc3ccccc32)C[Se]1` (configuration not stated), the GI50 in assay [2] was 3.2 µM (inactive); in assay [3] it was 4.47 µM (inactive); in assay [4] it was 2.12 µM (inactive); in [5], 2.14 µM (inactive); in [7], 12.9 µM (inactive); in assay [8], 3.63 µM (inactive). In addition, the GI50 in assay [9] is 2.61 µM (inactive).

Regarding `CCC[C@H]1O[C@@H]2CC(=O)O[C@@H]2C2=C1C(=O)C=CC2=O`, the GI50 is 15.6 µM (inactive) in assay [2]; 23.3 µM (inactive) in assay [3]; 13.6 µM (inactive) in assay [6]; 21.4 µM (inactive) in assay [7]; 17.7 µM (inactive) in [8]; 18 µM (inactive) in assay [9].

As to `O=C(c1ccc(Cl)cc1Cl)N(/N=C/C=C/c1ccccc1)c1nnc(-c2ccccc2)c(-c2ccccc2)n1`, the GI50 in assay [1], in assay [3], in [4], in [5], in [6] and in [7] was > 100 µM (inactive) throughout. The GI50 in assay [8] is > 100 µM (inactive).

With `COc1ccccc1NC(=O)C1=C(C)NC(C)=C(C(=O)Nc2ccccc2OC)C1/C=C/c1ccccc1`, the GI50 in [2] is 84.9 µM (inactive); in [3], 54.8 µM (inactive); in assay [4], 61.7 µM (inactive); in assay [6] it was > 100 µM (inactive); in assay [7] it was > 100 µM (inactive); in [8], > 100 µM (inactive). In assay [9], the GI50 is > 100 µM (inactive).

Consider `COCCN1C2=CCCCC2=Nc2c(N)nc(N)nc21`, for which the GI50 in assay [1], in [2], in assay [3], in [4], in assay [5] and in assay [6] was > 100 µM (inactive) each time. Moreover, the GI50 in assay [7], in assay [8] and in assay [9] was > 100 µM (inactive) each time.

As to `CCCCC1CC(c2ccc(Cl)cc2)=NO1` (configuration not stated), the GI50 in assay [2], in [3], in assay [4], in assay [6], in assay [8] and in assay [9] was > 100 µM (inactive) in each case.

For the compound `c1cc2[se][se]c3c4cccc5[se][se]c(c(c1)c23)c54`, the GI50 in assay [1], in [2], in [3], in [4], in assay [6] and in [7] was > 100 µM (inactive) in each case. In addition, the GI50 was > 100 µM (inactive) in assay [8] and 0.331 µM (active) in assay [9].

Consider `COc1cc(OC(=O)c2c(O)cc(O)c(O)c2C)cc(C)c1C(=O)Oc1cc(C)c(C(=O)O)c(O)c1`, for which the GI50 in assay [1], in [2], in assay [3], in assay [4], in assay [5] and in assay [6] was > 100 µM (inactive) throughout. The GI50 in assay [7], in assay [8] and in [9] was > 100 µM (inactive) throughout.

Consider `CC#CC1C2CCCC1(CSc1ccccc1)NC(=O)O2` (configuration not stated), for which the GI50 in [1], in [2], in assay [3], in assay [4], in assay [5] and in assay [6] was > 100 µM (inactive) in each case. Further, the GI50 in assay [7], in assay [8] and in assay [9] was > 100 µM (inactive) each time.

For the compound `COc1ccc(CCc2cc(OC)c(O)c(OC)c2)cc1`, the GI50 in [1] is 79.4 µM (inactive); in assay [2] it was 54.8 µM (inactive); in assay [3], 30.9 µM (inactive); in assay [4], 29 µM (inactive); in assay [5], 88.1 µM (inactive); in assay [6], 46.5 µM (inactive). Moreover, the GI50 was > 100 µM (inactive) in [7] and 60.1 µM (inactive) in [8].

`COc1cc2c(c(OC)c1OC)-c1cccc(=O)cc1C(NC(C)=O)CC2` (configuration not stated): the GI50 in [1] is 0.117 µM (active); in assay [2], 0.125 µM (active); in [3] it was 0.0859 µM (active); in assay [4] it was 0.0685 µM (active); in [6], 0.0509 µM (active); in [7], 0.12 µM (active). For the same compound, the GI50 in assay [9] is > 100 µM (inactive).

Consider `COc1ccc(COCC(Cn2ccnc2)OCc2ccc(C(=O)O)cc2)cc1` (configuration not stated), for which the GI50 in [1], in [2], in assay [3], in assay [4], in assay [5] and in [7] was > 100 µM (inactive) in each case. Moreover, the GI50 in [8] is > 100 µM (inactive).

With `Cc1cc(O)c2c(c1)C[C@@H](O)C1=C2C(=O)c2c(O)ccc(OC3CC(O)C(OC4CC(OC5CCC(OC6CC(O)C(OC7CC(OC8CCC(O)C(C)O8)C(O)C(C)O7)C(C)O6)C(C)O5)C(O)C(C)O4)C(C)O3)c2C1=O` (some centres not stated), the GI50 was 0.0247 µM (active) in assay [1]; 0.0155 µM (active) in assay [2]; 0.0245 µM (active) in assay [3]; 0.0144 µM (active) in assay [4]; 0.0209 µM (active) in assay [6]; 0.0461 µM (active) in assay [7]. Besides, the figures for the GI50 in assay [8] and in assay [9] were 0.0173 µM (active) and 0.0403 µM (active), respectively.

Regarding `COc1ccc(OC)c2c1C(=O)C1CC1(Br)C2=O` (configuration not stated), the GI50 in assay [1], in assay [2], in [4], in assay [6], in assay [7] and in assay [8] was > 100 µM (inactive) each time.
